Laboratory results taken from patent US4939133A, “N-substituted-2-hydroxy-α-oxo-benzeneacetamides and pharmaceutical compositions having activity as modulators of the arachidonic acid cascade” (Warner-Lambert Company, priority 1985, dated 1990).
pIC50: −log10 of the molar value.

Biological target: T1, 5-lipoxygenase (isolated human leukocytes) (Homo sapiens, UniProt P09917)
T1 construct: 5-Lipoxygenase Assay Using Isolated Human Leukocytes (5LOA2); endogenous in cells; host or cells: isolated human blood leukocytes, platelets removed
T1 sequence (P09917 1-674): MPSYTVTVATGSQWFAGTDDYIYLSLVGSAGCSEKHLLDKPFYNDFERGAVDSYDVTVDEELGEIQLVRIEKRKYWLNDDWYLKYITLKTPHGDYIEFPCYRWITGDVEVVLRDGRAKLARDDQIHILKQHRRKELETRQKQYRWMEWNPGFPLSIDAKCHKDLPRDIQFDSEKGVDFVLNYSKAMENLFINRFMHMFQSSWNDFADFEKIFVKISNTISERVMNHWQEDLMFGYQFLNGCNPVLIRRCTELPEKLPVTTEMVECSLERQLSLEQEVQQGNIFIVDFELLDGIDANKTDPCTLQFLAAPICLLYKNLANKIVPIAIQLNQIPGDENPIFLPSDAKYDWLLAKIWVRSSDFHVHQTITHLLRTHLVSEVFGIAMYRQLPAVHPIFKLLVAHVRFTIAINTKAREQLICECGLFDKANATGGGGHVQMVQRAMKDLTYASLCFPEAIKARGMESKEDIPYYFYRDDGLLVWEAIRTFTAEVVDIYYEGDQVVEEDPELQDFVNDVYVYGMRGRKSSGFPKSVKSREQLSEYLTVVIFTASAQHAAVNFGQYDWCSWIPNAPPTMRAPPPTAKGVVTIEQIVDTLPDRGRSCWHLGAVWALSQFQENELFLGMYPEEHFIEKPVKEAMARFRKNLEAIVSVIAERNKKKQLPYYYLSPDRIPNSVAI
Test: 5-Lipoxygenase Assay Using Isolated Human Leukocytes (5LOA2)
Assay type: cell-based
Settings: 5LOA2; 50% inhibition of 5-HETE formation; E -number means X 10^-no.; read-out: Concentration giving 50.00 % Inhibition (5LOA2)
Method: 5-Lipoxygenase Assay Using Isolated Human Leukocytes (5LOA2)
The formation of 5-HETE in human leukocytes is considered a measure of 5-lipoxygenase activity. The protocol is described in the following.
Fresh heparinized or EDTA treated human blood is mixed with 6% dextran-3% dextrose in isotonic saline in the ratio 0.25 ml dextran solution per 1.0 ml blood. After mixing the blood is allowed to sit at room temperature for about 90 minutes while the RBC's settle. During this period, the plasma is removed with a plastic pipette to nalgens tubes.
The plasma is centrifuged at 800 rpm ([…]) on the Beckman Td-b refrigerated centrifuge to remove the platelets (which remain in the supernatant). The pellet, consisting of leukocytes and erythrocytes, is treated with 10 ml 0.87% ammonium chloride at room temperature for four minutes, lysing the red cells. At the end of four minutes the cells are diluted with a 2×volume of phosphate buffered saline, pH 7.4, and centrifuged for ten minutes. The cells are washed three times with the phosphate buffered saline. Any of the pelleted cell matter which is not easily resuspended is discarded during the washings --the material contains platelets (12-lipoxygenase activity).
After washing, the cells are resuspended in phosphate buffered saline containing 1.0 mM calcium and 0.5 mM magnesium. After counting the cells are diluted to 1.5-2.0×10^7 leukocytes per milliliter.
To each polypropylene reaction tube is added 0.48 ml leukocytes in Ca-Mg phosphate buffered saline, pH 7.4; 1-5 μl test compound dissolved in DMSO and buffer; or DMSO for control tubes.
The tubes preincubate at 37° C. for five minutes. […]
A portion of the ethanol solution is injected into the HPLC system for 5-HETE quantitation.
The HPLC system consists of Hewlett-Packard 1040A UV spectrophotometry system with an HP85 computer. […] Peaks are measured with a Hewlett Packard 3360A integrator. […] The flow is monitored at 235 nm for 5-HETE quatitation. […]

COc1ccc(CCc2ccc(NC(=O)c3ccc(C)cc3O)cc2)cc1OC [Example 46, N-[4-[2-(3,4-Dimethoxyphenyl)ethyl]phenyl]-2-hydroxy-4-methylbenzamide]
pIC50: 5.77
